Reference: patent US6861448B2, “NAD synthetase inhibitors and uses thereof” (priority 1998, dated 2005)
≈ marks a conversion by molar mass, not a printed value. Where “and” joins values, the source holds several entries; their conditions need not be identical. Equal values may be shown once. Read-outs that look alike come from different tables or passages of the source.

How the values were obtained:
[1] = test system: E. coli; assay: MIC test (NCCLS broth dilution), growth inhibition; assay type: cell-based; details: in vitro; for MIC: Escherichia coli, read-out: Potency to inhibit growth, E. coli (MIC)
Description: (§1) Antimicrobial Testing (P. aeruginosa, E. coli, B. subtilis, S. aureus, S. aureus (MCR), A. niger and M. flavescens.)
(§2) The test compounds were solubilized, diluted, and pipetted in duplicate into 10 mL sterile culture tubes and dried under vacuum.
(§3) Challenge organisms, specified were grown overnight at 37° C. in the appropriate medium (i.e., Mueller-Hinton Broth). These pure broth cultures were diluted 1:1,000 and 2.0 mL were added to the test compound tubes.
(§4) Appropriate media controls, challenge organism viability controls, and antibiotic control dilutions (i.e., ampicillin and nystatin), were prepared in the same manner as the test compounds and run against the challenge organisms.

[2] = test system: P aeruginosa; assay: MIC test (NCCLS broth dilution), growth inhibition; assay type: cell-based; details: in vitro; for MIC: Pseudomonas aeruginosa, read-out: Potency to inhibit growth, P aeruginosa (MIC)
Description: as §1, §2, §3, §4

[3] = target: NAD synthetase (Bacillus subtilis, UniProt P08164); assay: NAD synthetase coupled enzyme assay; assay type: biochemical
Chain of NAD synthetase (P08164 whole entry): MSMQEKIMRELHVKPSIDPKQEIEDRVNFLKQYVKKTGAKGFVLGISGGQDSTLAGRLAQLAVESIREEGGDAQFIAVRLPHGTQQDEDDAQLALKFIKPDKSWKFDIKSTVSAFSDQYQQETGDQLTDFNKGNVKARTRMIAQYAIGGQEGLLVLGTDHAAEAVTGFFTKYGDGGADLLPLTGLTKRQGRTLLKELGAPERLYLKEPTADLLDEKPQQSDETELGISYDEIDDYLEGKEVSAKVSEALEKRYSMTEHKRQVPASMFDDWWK
Source text: This Example illustrates the NAD synthetase enzyme inhibiting activity of some compounds of the present invention. [drawing 48] The coupled assay—production of NAD was monitored through conversion to NADH by alcohol dehydrogenase. [NADH] was monitored by 2 parallel methods: the change in absorbance at 340 nm, and fluorescence at 460 nm (excitation 320 nm). […] Controls were included for determining inhibitor background, precipitation, and ADH inhibition.

[4] = test system: C. albicans; assay: MIC test, fungal growth inhibition; assay type: cell-based; details: in vitro
Description: (§5) The MIC test procedures conformed to the present protocol from the National Committee for Clinical Laboratory Standards (NCCLS), and were designed to provide basic antimicrobial data on compounds based on the MIC of the active component.
as §2, §3, §4

[5] = test system: M. flavescens; assay: microbe, parasite or virus in culture; assay type: cell-based
[6] = test system: B. subtilis; assay: microbe, parasite or virus in culture; assay type: cell-based; details: multiple values = two or more tests; for MIC: Bacillus subtilis, read-out: Minimal Inhibitory Concentration (MIC), B. subtilis
[7] = test system: A. niger; assay: MIC test, fungal growth inhibition; assay type: cell-based; details: in vitro
Description: as §1, §5, §2, §3, §4

[8] = test system: S. aureus; assay: microbe, parasite or virus in culture; assay type: cell-based; details: multiple values = two or more tests; for MIC: Staphylococcus aureus, read-out: Minimal Inhibitory Concentration (MIC), S. aureus
[9] = test system: S. aureus (MCR); assay: microbe, parasite or virus in culture; assay type: cell-based; details: for Minimal Inhibitory Concentration (MIC), S. aureus (MCR): multiple values = two or more tests; for MIC: Staphylococcus aureus, read-out: Minimal Inhibitory Concentration (MIC), S. aureus (MCR), multiple values = two or more tests
[10] = test system: Bacillus anthracis Sterne 34F2; assay: microbe, parasite or virus in culture; assay type: cell-based; details: Bacillus anthracis
[11] = test system: rabbit primary renal cells (RPRC); assay: Cytotoxicity in rabbit primary renal cells (annexin V / PI flow cytometry); assay type: cell-based; details: 24 hr, mean ± SEM; for % CELLULAR NECROSIS (RPRC): at 300 μM; for % APOPTOSIS (RPRC): at peak effect (30 μM)
Description: Cytotoxicity in Rabbit Primary Renal Cells
Isolation of Proximal Tubules and Culture Conditions
Rabbit renal proximal tubules were isolated using the iron oxide perfusion method and grown in 35-mm tissue culture dishes under improved conditions. The cell culture medium was a 1:1 mixture of DMEM/Ham's F-12 (without D-glucose, phenol red, or sodium pyruvate) supplemented with 15 mM HEPES buffer, 2.5 mM L-gluatmine, 1 μM pyridoxine HCL, 15 mM sodium bicarbonate, and 6 mM lactate. Hydrocortisone (50 nM), selenium (5 ng/mL), human transferrin (5 μg/mL), bovine insulin (10 nM) and L-ascorbic acid-2-phosphate (50 μM) were added to fresh culture medium immediately prior to daily media change.
All numbered compounds were diluted in methanol and the final concentration of methanol in RPRC was less then 0.1% (v/v).
Measurement of RPRC Death
Cell death was monitored in RPRC by assessment of both annexin V and PI staining using flow cytometry. Briefly, RPRC were exposed to the indicated concentrations of compounds for 24 hr. Media was removed and RPRC washed twice with phosphate-buffered saline (PBS) and incubated in a binding buffer (10 mM HEPES, 140 mM NaCL, 5 mM KCL, 1 mM MgCl2, 1.8 mM CaCl2, pH=7.4) containing annexin V-FITC (1 μmol) and PI (25 μg/mL). After a 10 min incubation, RPRC were washed three times in the binding buffer and were released from the monolayers by gentle scrapping with a rubber policeman. Annexin V and PI staining were measured using a BectonDickson FacsCalibur flow cytometer (San Jose, Calif.). An equal number of cells (10,000) were counted for sample and apoptotic cells were defined as those that stained positive for annexin V-FITC only. RPRC undergoing necrotic cell death stained for PI only.
RPRC isolated from one rabbit represented one experiment (n=1). Data were analyzed and are reported as means±standard error of the mean of at least 3 separate experiments.

[12] = NAD synthetase 2.0 μg/mL, 0.1 mM NaAD, 0.2 mM ATP, pH 8.5
[13] = STERNE34F2, read-out: approximate MIC, B. anthracis (first value)
[14] = STERNE34F2, read-out: approximate MIC, B. anthracis (second value)

Row | Structure (SMILES) | Potency to inhibit growth, E. coli (MIC) [1] | Potency to inhibit growth, P aeruginosa (MIC) [2] | IC50 [3, 12] [µM] | Potency to inhibit growth, C. albicans (MIC) [4] | Minimal Inhibitory Concentration (MIC), B. subtilis [6] | Potency to inhibit growth, A. niger (MIC) [7] | Minimal Inhibitory Concentration (MIC), S. aureus [8] | Minimal Inhibitory Concentration (MIC), S. aureus (MCR) [9] | MIC [10, 13] [µg/mL] | MIC [6] [µg/mL] | MIC [9] [µg/mL] | also measured
1 | C[N+](C)(C)[C@@H](Cc1ccccc1)C(=O)NCCCCCCCCn1ccc2cc(OCc3ccccc3)ccc21.[I-] [Compound 1447] | >50: <50 μg/mL | >50; >50 μg/mL | 22.1 | < 6.25 µg/mL and < 3.13 µg/mL | <1.56 µg/mL and <0.78 µg/mL | >50; >50 μg/mL | <1.56; μg/mL and <0.78 μg/mL | <1.56; μg/mL and <1.56 μg/mL | – | – | – | Minimal Inhibitory Concentration (MIC), M. flavescens [5]: <6.25 µg/mL
2 | C[N+](C)(C)[C@@H](Cc1ccccc1)C(=O)NCCCCCCCCOc1ccc2c(c1)C(=O)CC(c1ccccc1)O2.[I-] (stereo partly drawn) [Compound 1450] | >50 µg/mL | >50 µg/mL | 31.7 | <6.25 µg/mL | <3.13 µg/mL | >50 µg/mL | <3.13 µg/mL | <3.13 µg/mL | – | – | – | Minimal Inhibitory Concentration (MIC), M. flavescens [5]: <3.13 µg/mL
3 | C[C@@H]1[C@H](O)[C@@H](C)/C=C/C=C/C=C/C=C/C=C/C=C/C=C/[C@H](O[C@@H]2O[C@H](C)[C@@H](O)[C@H](N)[C@@H]2O)C[C@@H]2O[C@](O)(C[C@@H](O)C[C@@H](O)[C@H](O)CC[C@@H](O)C[C@@H](O)CC(=O)O[C@H]1C)C[C@H](O)[C@H]2C(=O)O [Amphotericin B, reference compound] | – | – | – | <1.56 µg/mL | – | <1.56 µg/mL | – | – | – | – | – | –
4 | C[N+](C)(C)C(Cc1ccccc1)C(=O)NCCCCCCCCOc1ccc(OC(=O)c2cccc(Cl)c2)cc1 (stereo not drawn) [Compound 1594] | – | – | 25 | – | – | – | – | – | 8 | > 50 | < 6.25 | MIC [10, 14]: 32 µg/mL; % CELLULAR NECROSIS (RPRC) [11]: 29 ± 4%; % APOPTOSIS (RPRC) [11]: 13 ± 2%
5 | N=C(N)N[C@@H](Cc1ccccc1)C(=O)NCCCCCCCCOc1ccc(OCc2ccccc2)cc1 [Compound 1503] | – | – | – | – | – | – | – | <1.56 µg/mL | 8 (≈ 15.5 µM) | – | < 0.78 | MIC [1]: > 50 µg/mL; MIC [2]: > 50 µg/mL; IC50 [3]: 12.7 µM; MIC ([4]; Candida albicans, read-out: Potency to inhibit growth, C. albicans (MIC)): > 50 µg/mL; MIC [10, 14]: 16 µg/mL (≈ 31 µM); MIC ([5]; Mycolicibacterium flavescens, read-out: Minimal Inhibitory Concentration (MIC), M. flavescens): > 50 µg/mL; MIC ([7]; Aspergillus niger, read-out: Potency to inhibit growth, A. niger (MIC)): > 50 µg/mL; MIC [8]: < 0.78 µg/mL
6 | C[N+](C)(C)C(Cc1ccccc1)C(=O)NCCCCCCCCOc1ccc(OC(=O)c2cc(F)cc(F)c2F)cc1 (stereo not drawn) [Compound 1617] | – | – | 31.4 | – | – | – | – | – | 16 | < 12.5 | < 6.25 | % CELLULAR NECROSIS (RPRC) [11]: 18 ± 2%; % APOPTOSIS (RPRC) [11]: 23 ± 3%
7 | C[C@H]1c2cccc(O)c2C(=O)C2=C(O)[C@]3(O)C(=O)C(C(N)=O)=C(O)[C@@H](N(C)C)[C@@H]3[C@@H](O)[C@@H]21 [Doxycycline, reference compound] | – | – | – | – | – | – | – | – | – | < 1.56 | < 30 | MIC [1]: < 1.56 µg/mL; MIC [2]: < 30 µg/mL; MIC [8]: < 1.56 µg/mL
8 | COc1cccc(COc2ccc(OCCCCCCCCNC(=O)[C@H](Cc3ccccc3)[N+](C)(C)C)cc2)c1.[I-] [Compound 1423] | >50 µg/mL | >50 µg/mL | 32.9 | <3.13 µg/mL | <0.20 µg/mL | <50 µg/mL | <1.56 µg/mL | <1.56 µg/mL | – | – | – | –
